Data set [1] deals with T1, full length human Scyl1 (1-808) protein (Homo sapiens, UniProt Q96KG9).
T1 construct: The target enzyme used was the full length human Scyl1 (1-808) protein
T1 sequence (Q96KG9 1-808): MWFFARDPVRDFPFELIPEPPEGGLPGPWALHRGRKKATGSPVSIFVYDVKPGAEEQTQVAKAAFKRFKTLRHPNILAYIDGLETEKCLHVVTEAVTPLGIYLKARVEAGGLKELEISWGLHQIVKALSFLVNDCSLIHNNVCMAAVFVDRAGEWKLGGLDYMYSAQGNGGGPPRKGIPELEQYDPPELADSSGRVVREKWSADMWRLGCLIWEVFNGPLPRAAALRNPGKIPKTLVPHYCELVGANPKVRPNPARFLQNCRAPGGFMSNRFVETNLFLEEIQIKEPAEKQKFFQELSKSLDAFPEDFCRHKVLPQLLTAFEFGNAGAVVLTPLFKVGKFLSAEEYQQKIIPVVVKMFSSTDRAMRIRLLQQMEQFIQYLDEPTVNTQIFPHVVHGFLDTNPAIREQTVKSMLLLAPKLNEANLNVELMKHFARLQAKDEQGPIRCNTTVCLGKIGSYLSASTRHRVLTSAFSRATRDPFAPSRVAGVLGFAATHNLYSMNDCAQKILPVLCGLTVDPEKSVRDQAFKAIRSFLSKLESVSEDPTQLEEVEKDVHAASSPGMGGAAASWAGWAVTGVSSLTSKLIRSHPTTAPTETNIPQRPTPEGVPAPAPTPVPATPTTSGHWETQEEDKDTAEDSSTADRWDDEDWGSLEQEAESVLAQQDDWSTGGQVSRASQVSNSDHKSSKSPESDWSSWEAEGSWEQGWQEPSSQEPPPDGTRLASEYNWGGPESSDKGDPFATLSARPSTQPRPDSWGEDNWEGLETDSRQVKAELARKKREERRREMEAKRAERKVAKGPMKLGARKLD
The data set is described as follows: SCYL1 reporter probe displacement assay. The data set is classed as binding. How it is done:
The reporter displacement assay is based on reporter probe (PRO16, Proteros GmbH) that is designed to bind to ATP-binding site of SCYL1 (Methods in Enzymology, 2011, vol. 493, p. 300-319). The proximity between reporter probe and target protein (SCYL1) results in the emission of an optical signal. Test compounds that bind to the same site as the reporter probe displace the probe, causing signal diminution. The rate of reporter probe displacement is measured over time after addition of test compounds at various concentrations.
For Kd determination, percent reporter probe displacement values are calculated for the last time point, at which the system has reached equilibrium. For each compound concentration percent probe displacement values are calculated and plotted against the compound concentration. IC50-like values (corresponding to 50% probe displacement) are calculated using standard fitting algorithms. […] Thus, according to the Cheng Prusoff equation, the Kd value of test compounds can be calculated with Kd = ½ IC50. […]
Probe displacement was calculated in relation to the C+(positive) and C-(negative) controls. The signal reflecting 0% probe displacement (C+) was measured in the absence of test compound, while the signal representing 100% probe displacement (C-) was measured in the absence of Scyl1. […]

Data set [2] concerns beta-TC6. The data set is described as follows: MTT cytotoxicity assay (cell viability and proliferation). The data set is classed as cell-based, mouse. Particulars: beta-TC6, 72 h treatment, concentrations up to 10 µM. How it is done: Using a MTT approach, we determined the effect on cell viability and proliferation of beta-TC6 and C2C12 cells to display potential cytotoxicity of the compounds according to the invention in vitro after a 72 h treatment.
For MTT (3-(4,5-dimethylthiazol-2-yl)-2,5-diphenyl tetrazolium bromide) transformation, 1/5 of total volume of a 5 mg/mL MTT stock solution was added to the cells as well as control wells and incubated at 37 °C, 5 % CO2 (v/v) for 1 h. Then 1/2 of total volume of MTT-stop solution was added and plates were incubated overnight in the dark at 25 °C. The optical density (OD) was measured using a multiwell spectrophotometer at a wavelength of 570 nm.
A general note: Formazan colour is commonly taken as a measure of viable cells.

As to `COc1cc(-c2ccc3ncc(-c4cccnc4)n3n2)cc(OC)c1OC` [compound 10, 3-(3-pyridyl)-6-(3,4,5-trimethoxyphenyl)imidazo[1,2-b]pyridazine], in data set [1] (Scyl1 probe displacement), the IC50 (in general, the point on the concentration scale where inhibition reaches its midpoint) was found to be 500 nM. In addition, the Inh. in data set [1] (probe displacement, primary screen) turned out to be 100%. Also, in data set [2], the toxic effect entry is “no toxic effect at all”.

Source of the values: EP2818471A1, “Nitrogen bicyclic compounds as inhibitors for Scyl1 and Grk5” (Max-Planck-Gesellschaft zur Förderung der Wissenschaften …, priority 2013, dated 2014).
